This note sets out measurements from patent publication US7812022B2 (GlaxoSmithKline LLC, priority 2004, dated 2010).

For orientation: IC50 means the concentration at which inhibition is half-maximal.

In assay [1] the test system is BT474 and HN5 tumor cell lines. Kind of assay: Methylene blue growth inhibition assay (cellular Method A). The assay is classed as cell-based, Human. The conditions noted are these: Homo sapiens, BT-474, 72 h, 3 days, read-out: Activity (Method): growth inhibition IC50 class. In a few lines: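 Growth inhibition measured by methylene blue staining of biomass (OD 620) after 3 days' compound exposure at 37° C, final DMSO 0.3%. Cell lines: BT474 (10,000/well), HN5 (3,000/well) and Colo205, all in DMEM with 10% FBS; IC50 fitted by nonlinear regression against vehicle-treated wells.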

Another assay has as its system Colo205 tumor cell lines. Kind of assay: Methylene blue growth inhibition assay (cellular Method A), Colo205. The assay is classed as cell-based, Human. The conditions noted are these: Homo sapiens, COLO 205, 72 h, 3 days, read-out: Activity (Method): growth inhibition IC50 class. Here is the method: Human breast (BT474) and head and neck (HN5) were cultured in low glucose DMEM (Life Technologies 12320-032) containing 10% fetal bovine serum (FBS). Human colon tumor cells (Colo205) were cultured in DMEM (Invitrogen, 10564) containing 10% FBS. The SV40 transformed human mammary epithelial cell line HB4a was transfected with either human H-ras cDNA (HB4a r4.2) or the human c-ErbB2 cDNA (HB4a c5.2). The HB4a clones were cultured in RPMI containing 10% FBS, insulin (5 g/mL), hydrocortisone (5 g/mL), supplemented with the selection agent hygromycin B (50 g/mL). All lines were grown in a humidified incubator at 37° C. in 95% air, 5% CO2. Cells were harvested using trypsin/EDTA, counted using a haemocytometer, and plated in 100 microliters of the appropriate media, at the following densities, in a 96-well tissue culture plate (Falcon 3075): BT474 10,000 cells/well, HN5 3,000 cells/well. The next day, compounds were diluted in DMEM containing […] gentamicin, at twice the final required concentration, from 10 mM stock solutions in DMSO. 100 microliters/well of these dilutions were added to the 100 microliters of media currently on the cell plates. Medium containing 0.6% DMSO was added to control wells. Compounds diluted in DMEM were added to all cell lines. The final concentration of DMSO in all wells was 0.3%. Cells were returned to the incubator (37° C., 10% CO2) for 3 days. Medium was then removed by aspiration. Cell biomass was estimated by staining cells with 90 microliters per well methylene blue (Sigma M9140, 0.5% in 1:1 ethanol:water), and incubation at rt for at least 30 minutes. Stain was removed, and the plates rinsed by immersion in deionized water and air-dried. To release stain from the cells 100 microliters of solubilization solution was added (1% N-lauroyl sarcosine, Sodium salt, Sigma L5125, in PBS), and plates were shaken gently for about 30 minutes. Optical density at 620 nm was measured on a microplate reader. Percent inhibition of cell growth was calculated relative to vehicle treated control wells. Concentration of compound that inhibits 50% of control cell growth (IC50) was interpolated using nonlinear regression (Levenberg-Marquardt) and the equation, y=Vmax*(1−(x/(K+x)))+Y2, where “K” was equal to the IC50. Method B: Celltiter Glo® Growth Inhibition Assays

The target of a further assay is T1, ErbB2 or EGFR.
T1 construct: enzymes purified from a baculovirus expression system; Reagent production was conducted essentially as described in Brignola, P. S., et al, (2002) J. Biol. Chem. 277(2): 1576-1585
Nature of the assay: ErbB family substrate phosphorylation enzyme assay (HTRF), Method A or Method B. Format: biochemical. In outline: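 Baculovirus-expressed EGFR or ErbB2 (0.8 or 10 nM in enzyme mix) phosphorylates biotinylated Peptide C with 20 µM ATP and 0.8 µM peptide (substrate-mix levels), MnCl2, pH 7.5. Reaction ran 90 min at 20 °C with EDTA stop and HTRF anti-phosphotyrosine read. Method A: enzyme added last; Method B: 1 h enzyme–compound preincubation.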
Background: Time-resolved FRET reads energy transfer from a long-lived donor to a nearby acceptor.

[2] abbreviates: Method A: substrate mix added first, reaction started with enzyme mix.
[3] abbreviates: Method B: enzyme mix pre-incubated with compound 1 hour at 20° C., started with substrate mix.

Where only a bound is given, the exact number is not on record here.

On to `O=C(Nc1cccc(-c2nn3ccccc3c2-c2ccnc(Nc3ccc(-c4cc[nH]n4)cc3)n2)c1)c1c(F)cccc1F` [Example 101, 2,6-Difluoro-N-{3-[3-(2-{[4-(1H-pyrazol-3-yl)phenyl]amino}-4-pyrimidinyl)pyrazolo[1,5-a]pyridin-2-yl]phenyl}benzamide], for which the IC50 in assay [1] was 100 to 1000 nM; in the assay with Colo205 tumor cell lines, above 1000 nM.

`CC(=O)Nc1cccc(Nc2nccc(-c3c(-c4cccc(NC(=O)c5c(F)cccc5F)c4)nn4ccccc34)n2)c1` [Example 36, N-{3-[3-(2-{[3-(Acetylamino)phenyl]amino}-4-pyrimidinyl)pyrazolo[1,5-a]pyridin-2-yl]phenyl}-2,6-difluorobenzamide]: the “Activity (Method): pIC50 class against ErbB2 or EGFR” value (shortened to “Activity (Method): pIC50 class”) on ErbB2 or EGFR (setting [2]) is given as “+++ (A) (at least one pIC50 measurement of greater than 7 against either ErbB2 or EGFR)”. For the same compound, the IC50 in assay [1] is below 100 nM.

With `N#Cc1cccc(Nc2nccc(-c3c(-c4cccc(NC(=O)c5c(F)cccc5F)c4)nn4ccccc34)n2)c1` [Example 30, N-[3-(3-{2-[(3-cyanophenyl)amino]-4-pyrimidinyl}pyrazolo[1,5-a]pyridin-2-yl)phenyl]-2,6-difluorobenzamide], the “Activity (Method): pIC50 class” value at ErbB2 or EGFR (setting [2]) is “+++ (A) (at least one pIC50 measurement of greater than 7 against either ErbB2 or EGFR)”. In assay [1], the IC50 is below 100 nM.

For the compound `Cc1cccc(C(=O)Nc2cccc(-c3nn4ccccc4c3-c3ccnc(Nc4ccccc4)n3)c2)c1` [Example 141, 3-Methyl-N-(3-{3-[2-(phenylamino)-4-pyrimidinyl]pyrazolo[1,5-a]pyridin-2-yl}phenyl)benzamide], the “Activity (Method): pIC50 class” value at ErbB2 or EGFR (setting [2]) is on record as “++ (A) (at least one pIC50 measurement greater than 6 against either ErbB2 or EGFR but no measurement greater than pIC50 of 7)”. For the same compound, in assay [1], the IC50 was in the range of 100 to 1000 nM.

`CS(=O)(=O)Cc1ccc(Nc2nccc(-c3c(-c4cccc(NC(=O)c5cc(F)ccc5F)c4)nn4ccccc34)n2)cc1` [Example 53, 2,5-Difluoro-N-(3-{3-[2-({4-[(methylsulfonyl)methyl]-phenyl}amino)-4-pyrimidinyl]pyrazolo[1,5-a]pyridin-2-yl}phenyl)benzamide]: the “Activity (Method): pIC50 class” value at ErbB2 or EGFR (setting [2]) was “++ (A) (at least one pIC50 measurement greater than 6 against either ErbB2 or EGFR but no measurement greater than pIC50 of 7)”. Further, the half-inhibitory concentration (IC50) in assay [1] was in the range of 100 to 1000 nM.

As for `O=C(Nc1cccc(-c2nn3ccccc3c2-c2ccnc(Nc3ccc4c(c3)OCCO4)n2)c1)c1c(F)cccc1F` [Example 114, N-(3-{3-[2-(2,3-dihydro-1,4-benzodioxin-6-ylamino)-4-pyrimidinyl]pyrazolo[1,5-a]pyridin-2-yl}phenyl)-2,6-difluorobenzamide], the “Activity (Method): pIC50 class” value on ErbB2 or EGFR (setting [2]) is “+++ (A) (at least one pIC50 measurement of greater than 7 against either ErbB2 or EGFR)”. Further, in assay [1], the half-maximal inhibitory concentration (IC50) is below 100 nM.

For the compound `Cn1cccc1C(=S)Nc1cccc(-c2nn3ccccc3c2-c2ccnc(Nc3ccc4c(c3)OCCO4)n2)c1` [Example 10, 1-Methyl-1H-pyrrole-2-carbothioic acid (3-{3-[2-(2,3-dihydro-benzo[1,4]dioxin-6-ylamino)-pyrimidin-4-yl]pyrazolo[1,5-a]pyridin-2-yl}-phenyl)-amide], on ErbB2 or EGFR (setting [2]), the “Activity (Method): pIC50 class” value is reported as “++ (A) (at least one pIC50 measurement greater than 6 against either ErbB2 or EGFR but no measurement greater than pIC50 of 7)”. Moreover, the IC50 in assay [1] fell in the range of 100 to 1000 nM.

`CCS(=O)(=O)Cc1ccc(Nc2nccc(-c3c(-c4cccc(NC(=O)c5cc(F)ccc5F)c4)nn4ccccc34)n2)cc1` [Example 51, N-(3-{3-[2-({4-[(ethylsulfonyl)methyl]phenyl}amino)-4-pyrimidinyl]pyrazolo[1,5-a]pyridin-2-yl}phenyl)-2,5-difluorobenzamide]: the “Activity (Method): pIC50 class” value on ErbB2 or EGFR (setting [2]) is recorded as “+++ (A) (at least one pIC50 measurement of greater than 7 against either ErbB2 or EGFR)”. Moreover, the IC50 in assay [1] fell in the range of 100 to 1000 nM.

For `O=C(Nc1cccc(-c2nn3ccccc3c2-c2ccnc(Nc3ccccc3)n2)c1)c1c(F)cccc1F` [Example 34, 2,6-Difluoro-N-(3-{3-[2-(phenylamino)-4-pyrimidinyl]pyrazolo[1,5-a]pyridin-2-yl}phenyl)benzamide], on ErbB2 or EGFR (setting [3]), the “Activity (Method): pIC50 class” value is recorded as “+++ (B) (at least one pIC50 measurement of greater than 7 against either ErbB2 or EGFR)”. Moreover, the 50% inhibitory concentration (IC50) in assay [1] was below 100 nM.

Regarding `O=C(Nc1cccc(-c2nn3ccccc3c2-c2ccnc(Nc3cccc(F)c3)n2)c1)c1ccc(F)cc1F` [Example 19, 2,4-Difluoro-N-(3-{3-[2-(3-fluoro-phenylamino)-pyrimidin-4-yl]-pyrazolo[1,5-a]pyridin-2-yl}-phenyl)-benzamide], on ErbB2 or EGFR (setting [3]), the “Activity (Method): pIC50 class” value is recorded as “+++ (B) (at least one pIC50 measurement of greater than 7 against either ErbB2 or EGFR)”. Moreover, the IC50 in assay [1] lay in the range of 100 to 1000 nM.

`O=C(Nc1cccc(-c2nn3ccccc3c2-c2ccnc(Nc3cccc(F)c3)n2)c1)c1ccc(F)cc1Cl` [Example 20, 2-Chloro-4-fluoro-N-(3-{3-[2-(3-fluoro-phenylamino)-pyrimidin-4-yl]-pyrazolo[1,5-a]pyridin-2-yl}-phenyl)-benzamide]: the “Activity (Method): pIC50 class” value on ErbB2 or EGFR (setting [3]) is listed as “++ (B) (at least one pIC50 measurement greater than 6 against either ErbB2 or EGFR but no measurement greater than pIC50 of 7)”. Moreover, the IC50 in assay [1] was in the range of 100 to 1000 nM.

For `O=C(Nc1cccc(-c2nn3ccccc3c2-c2ccnc(Nc3cccc(F)c3)n2)c1)c1sccc1Br` [Example 80, 3-Bromo-N-[3-(3-{2-[(3-fluorophenyl)amino]-4-pyrimidinyl}pyrazolo[1,5-a]pyridin-2-yl)phenyl]-2-thiophenecarboxamide], the “Activity (Method): pIC50 class” value on ErbB2 or EGFR (setting [3]) is “++ (B) (at least one pIC50 measurement greater than 6 against either ErbB2 or EGFR but no measurement greater than pIC50 of 7)”. In addition, the IC50 in assay [1] is 100 to 1000 nM.

Take `COc1ccc(Nc2nccc(-c3c(-c4cccc(NC(=O)c5c(F)cccc5F)c4)nn4c(C)cccc34)n2)cc1F` [Example 157, 2,6-Difluoro-N-[3-(3-{2-[(3-fluoro-4-methoxy-phenyl)amino]pyrimidin-4-yl}-7-methylpyrazolo[1,5-a]pyridin-2-yl)phenyl]benzamide]: the “Activity (Method): pIC50 class” value on ErbB2 or EGFR (setting [2]) is on record as “++ (A) (at least one pIC50 measurement greater than 6 against either ErbB2 or EGFR but no measurement greater than pIC50 of 7)”. Further, the IC50 in assay [1] was 100 to 1000 nM.

Regarding `COc1cccc2c(-c3ccnc(Nc4cccc(C(F)(F)F)c4)n3)c(-c3cccc(NC(=O)c4c(F)cccc4F)c3)nn12` [Example 158, 2,6-Difluoro-N-{3-[7-methoxy-3-(2-{[3-(trifluoro-methyl)phenyl]amino}pyrimidin-4-yl)pyrazolo[1,5-a]pyridin-2-yl]phenyl}benzamide], the “Activity (Method): pIC50 class” value on ErbB2 or EGFR (setting [2]) is recorded as “++ (A) (at least one pIC50 measurement greater than 6 against either ErbB2 or EGFR but no measurement greater than pIC50 of 7)”. Moreover, the IC50 in assay [1] was in the range of 100 to 1000 nM.

Regarding `COc1ccccc1C(=O)Nc1cccc(-c2nn3ccccc3c2-c2ccnc(Nc3cccc(F)c3)n2)c1` [Example 69, N-[3-(3-{2-[(3-fluorophenyl)amino]-4-pyrimidinyl}pyrazolo[1,5-a]pyridin-2-yl)phenyl]-2-(methyloxy)benzamide], at ErbB2 or EGFR (setting [3]), the “Activity (Method): pIC50 class” value is “+++ (B) (at least one pIC50 measurement of greater than 7 against either ErbB2 or EGFR)”. Besides, in assay [1], the half-inhibitory concentration (IC50) is 100 to 1000 nM.

As to `O=C(c1ccccc1)c1ccc(Nc2nccc(-c3c(-c4cccc(NC(=O)c5c(F)cccc5F)c4)nn4ccccc34)n2)cc1` [Example 98, 2,6-Difluoro-N-{3-[3-(2-{[4-(phenylcarbonyl)phenyl]-amino}-4-pyrimidinyl)pyrazolo[1,5-a]pyridin-2-yl]phenyl}benzamide], the “Activity (Method): pIC50 class” value at ErbB2 or EGFR (setting [2]) is on record as “++ (A) (at least one pIC50 measurement greater than 6 against either ErbB2 or EGFR but no measurement greater than pIC50 of 7)”. Further, in assay [1], the IC50 fell in the range of 100 to 1000 nM.
